# Reference: ChEMBL document CHEMBL5113482, “Discovery of fused benzimidazole-imidazole autophagic flux inhibitors for treatment of triple-negative breast cancer” (Eur J Med Chem, 2022)
# The source made the active and inactive calls. The rule behind the calls is not given here.
# What was measured:
# MDA-MB-231 [1] = test: Induction of mitochondrial membrane potential loss in human MDA-MB-231 cells at 20 uM measured after 48 hrs by JC-1 staining based assay relative to control; format: functional
# MDA-MB-231 [2] = test: Antiproliferative activity against human MDA-MB-231 cells assessed as cell growth inhibition measured after 48 hrs by MTT assay; format: functional, cell-based; details: MDA-MB-231, 48 h
# HSC-3 = test: Antiproliferative activity against human HSC-3 cells assessed as cell growth inhibition measured after 48 hrs by MTT assay; format: functional, cell-based; details: HSC-3, 48 h
# SW-620 = test: Antiproliferative activity against human SW-620 cells assessed as cell growth inhibition measured after 48 hrs by MTT assay; format: functional, cell-based; details: SW-620, 48 h
# ASPC1 = test: Antiproliferative activity against human ASPC cells assessed as cell growth inhibition measured after 48 hrs by MTT assay; format: functional, cell-based; details: ASPC1, 48 h
# LN-229 = test: Antiproliferative activity against human LN-229 cells assessed as cell growth inhibition measured after 48 hrs by MTT assay; format: functional, cell-based; details: LN-229, 48 h
# MDA-MB-231 [3] = test: Inhibition of autophagy in human MDA-MB-231 cells assessed as increase in LC3B-II expression measured after 48 hrs by immunofluorescence analysis; format: functional, cell-based; details: dose 5-20 µM
# MDA-MB-468 [4] = test: Inhibition of autophagy in human MDA-MB-468 cells assessed as increase in LC3B-II expression measured after 48 hrs by immunofluorescence analysis; format: functional, cell-based; details: dose 5-20 µM
# MDA-MB-468 [5] = test: Induction of DNA damage in human MDA-MB-468 cells assessed as increase in gamma-H2AX accumulation measured after 48 hrs by immunofluorescence analysis; format: functional, cell-based
# Nibrin (Homo sapiens) = target: T1, Nibrin (Homo sapiens) (UniProt O60934); test: Activation of NBS1 phosphorylation in human MDA-MB-231 cells at 5 to 20 uM measured after 6 to 48 hrs by Western blot analysis; format: cell-based; details: filed as activator, dose 5-20 µM, time 6-48 hrs
# T1 sequence (whole entry): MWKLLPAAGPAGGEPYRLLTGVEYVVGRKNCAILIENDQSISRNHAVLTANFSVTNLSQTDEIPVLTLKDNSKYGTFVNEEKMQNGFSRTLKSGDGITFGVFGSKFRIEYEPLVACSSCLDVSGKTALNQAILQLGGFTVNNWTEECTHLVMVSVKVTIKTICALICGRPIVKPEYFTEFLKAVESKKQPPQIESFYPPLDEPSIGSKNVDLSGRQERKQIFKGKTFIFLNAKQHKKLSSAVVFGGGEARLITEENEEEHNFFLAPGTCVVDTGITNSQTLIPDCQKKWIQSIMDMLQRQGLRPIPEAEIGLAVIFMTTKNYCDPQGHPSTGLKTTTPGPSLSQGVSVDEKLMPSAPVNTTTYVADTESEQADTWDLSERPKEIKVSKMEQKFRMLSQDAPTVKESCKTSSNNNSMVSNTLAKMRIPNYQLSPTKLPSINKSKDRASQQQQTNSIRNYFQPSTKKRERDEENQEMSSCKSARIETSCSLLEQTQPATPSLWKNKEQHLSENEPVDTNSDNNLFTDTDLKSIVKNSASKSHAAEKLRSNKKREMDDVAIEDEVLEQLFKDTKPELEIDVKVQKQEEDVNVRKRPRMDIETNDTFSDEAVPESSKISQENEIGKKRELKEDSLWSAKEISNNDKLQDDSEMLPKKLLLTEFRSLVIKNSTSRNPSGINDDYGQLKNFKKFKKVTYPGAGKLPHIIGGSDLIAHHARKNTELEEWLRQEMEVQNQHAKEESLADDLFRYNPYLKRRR
# MDA-MB-231 [6] = test: Induction of DNA damage in human MDA-MB-231 cells assessed as reduction in BRCA2 expression measured after 6 to 48 hrs by Western blot analysis; format: functional, cell-based; details: dose 5-20 µM, time 6-48 hrs, DDE = dose-dependent effect
# MDA-MB-468 [7] = test: Induction of DNA damage in human MDA-MB-468 cells assessed as reduction in RAD51 expression measured after 6 to 48 hrs by Western blot analysis; format: functional, cell-based; details: dose 5-20 µM, time 6-48 hrs, DDE = dose-dependent effect
# MDA-MB-231 [8] = test: Inhibition of autophagic flux in human MDA-MB-231 cells assessed as reduction in RNF8 expression at 5 to 20 uM measured after 6 to 48 hrs by Western blot analysis; format: functional, cell-based; details: dose 5-20 µM, time 6-48 hrs
# MDA-MB-231 [9] = test: Induction of apoptosis in human MDA-MB-231 cells assessed as increase in cleaved PARP expression measured after 48 hrs by Western blot analysis; format: functional, cell-based; details: dose 5-20 µM, DDE = dose-dependent effect
compound,measurement,setting,value
O=C(NC1CCCCC1)c1[nH]cnc1-c1nc2ccccc2[nH]1,Activity,MDA-MB-231 [1],50%
same,IC50,MDA-MB-231 [2],8.3 µM
same,IC50,HSC-3,24 µM
same,IC50,SW-620,25.4 µM
same,IC50,ASPC1,26.9 µM
same,IC50,LN-229,61.4 µM
same,inhibition,MDA-MB-231 [3],Active
same,inhibition,MDA-MB-468 [4],Active
same,Activity,MDA-MB-468 [5],Active
same,Activity,Nibrin (Homo sapiens),Active
same,Activity,MDA-MB-231 [6],Dde
same,Activity,MDA-MB-468 [7],Dde
same,inhibition,MDA-MB-231 [8],Active
same,Activity,MDA-MB-231 [9],Dde
